This passage reports IC50 and GI50 results from patent publication US20230159556A1, “NOVEL PROTEIN KINASE INHIBITORS” (TENOVA PHARMACEUTICALS INC., priority 2020, published 2023).

The target of one assay is T1, EGFR_L858R/T790M/C797S (Homo sapiens, UniProt P00533, C797S/L858R/T790M).
T1 construct: Reaction Biology Corporation (contract assay provider)
Put plainly: In vitro biochemical kinase assay (33P-ATP filter-binding, Reaction Biology). On the procedure: The biochemical kinase assay was performed at Reaction Biology Corporation (www.reactionbiology.com, Malvern, Pa.) following procedures described in the reference (Anastassiadis, T, et al, Nature Biotechnology, 2011, 29, 1039). Base Reaction buffer includes 20 mM Hepes (pH 7.5), 10 mM MgCl2, 1 mM EGTA, 0.02% Brij35, 0.02 mg/ml BSA, 0.1 mM Na3VO4, 2 mM DTT and 1% DMSO. Required cofactors are added individually to each kinase reaction. Testing compounds were dissolved in 100% DMSO to specific concentration. The serial dilution was conducted by Integra Viaflo Assist in DMSO. Compounds in 100% DMSO are into the kinase reaction mixture by Acoustic technology (Echo550; nanoliter range), incubate for 20 min at room temperature, followed by ^33P-ATP and incubation for 2 hours at room temperature. Radioactivity was then detected by filter-binding method. Kinase activity data were expressed as the percent remaining kinase activity in test samples compared to vehicle (dimethyl sulfoxide) reactions. IC50 values and curve fits were obtained using Prism (GraphPad Software).

The subject of another assay is Ba/F3_WT cell. Put plainly: BaF3 cell proliferation assay (CelltiterGlo, 72 hr). Particulars: Mus musculus, 72 hr incubation. It is filed as cell-based. As for the experimental part:
(§1) The BaF3 cell proliferation assay was performed at Pharmaron (www.pharmaron.com, Beijing, China). The Ba/F3_WT and Ba/F3_Del19/T790M/C797S cell lines were maintained in 1640 medium containing 10% FBS, 1*PS and 1*Glutamax. Only cells with viability greater than 90% are used for assays. Dispense 30 μl of cell suspension at 700/well into 384 well microplate, add 30 nl compound solution into 384 cell plate by Echo, cells were incubated for 72 hr in 37° C./5% CO2 incubator, add 30 μl reagent CelltiterGlo assay kit (CTG, Promega) per well and shake plates, incubate the plate (avoiding light) at 37° C./5% CO2 for 30 min. and read the luminescence by Envision. The luminescence values were converted to % Inhibition. Calculate IC50 by fitting % inhibition values and log of compound concentrations to nonlinear regression (dose response−variable slope) with Graphpad 5.0.
(§2) Y=Bottom+(Top−Bottom)/(1+10^((Log IC50−X)*HillSlope))
(§3) X: log of inhibitor concentration; Y: % Inhibition.

The target of assay [1] is Ba/F3_EGFR_del19/T790M/C797S cell (Homo sapiens, UniProt P00533, T790M/C797S, cells depend on it, form not given). Described as above. Particulars: 72 hr incubation; read-out: IC50 (nM, Ba/F3_EGFR_del19/T790M/C797S cell proliferation). It counts as cell-based. On the procedure: as §1, §2, §3
Ba/F3_EGFR_del19/T790M/C797S cell, sequence (P00533 with tags, fused parts or gaps DEL746-750/T790M/C797S, form open): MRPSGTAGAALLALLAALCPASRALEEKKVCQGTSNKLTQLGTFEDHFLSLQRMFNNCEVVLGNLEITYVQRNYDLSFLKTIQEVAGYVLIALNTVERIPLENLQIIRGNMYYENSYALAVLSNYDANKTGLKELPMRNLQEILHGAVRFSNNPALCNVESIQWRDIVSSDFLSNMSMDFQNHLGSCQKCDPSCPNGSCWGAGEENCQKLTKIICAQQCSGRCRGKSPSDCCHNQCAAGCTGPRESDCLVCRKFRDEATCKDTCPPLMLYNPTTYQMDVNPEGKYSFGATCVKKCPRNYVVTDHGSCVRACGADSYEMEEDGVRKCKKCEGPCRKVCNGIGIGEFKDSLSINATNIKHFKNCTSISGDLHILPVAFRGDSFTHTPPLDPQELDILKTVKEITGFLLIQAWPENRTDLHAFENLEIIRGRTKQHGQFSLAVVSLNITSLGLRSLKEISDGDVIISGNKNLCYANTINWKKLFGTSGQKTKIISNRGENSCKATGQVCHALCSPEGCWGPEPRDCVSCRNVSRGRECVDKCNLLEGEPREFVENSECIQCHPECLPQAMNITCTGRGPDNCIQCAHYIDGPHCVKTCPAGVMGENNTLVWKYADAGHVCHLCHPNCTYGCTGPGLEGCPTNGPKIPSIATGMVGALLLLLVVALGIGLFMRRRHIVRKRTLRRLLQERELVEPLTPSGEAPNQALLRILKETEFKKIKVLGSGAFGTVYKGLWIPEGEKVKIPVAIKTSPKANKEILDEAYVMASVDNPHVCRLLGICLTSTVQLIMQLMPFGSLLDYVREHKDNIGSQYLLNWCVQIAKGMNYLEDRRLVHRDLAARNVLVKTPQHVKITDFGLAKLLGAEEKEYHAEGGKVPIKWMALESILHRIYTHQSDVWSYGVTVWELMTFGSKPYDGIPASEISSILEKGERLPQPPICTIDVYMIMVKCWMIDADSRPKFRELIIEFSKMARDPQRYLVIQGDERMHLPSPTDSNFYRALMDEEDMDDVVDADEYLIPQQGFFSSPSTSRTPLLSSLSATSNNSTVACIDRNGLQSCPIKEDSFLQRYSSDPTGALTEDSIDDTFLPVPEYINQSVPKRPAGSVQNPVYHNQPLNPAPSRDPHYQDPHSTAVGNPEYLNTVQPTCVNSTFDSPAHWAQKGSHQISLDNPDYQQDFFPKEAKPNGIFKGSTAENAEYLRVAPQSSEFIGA

T1 sequence (P00533 25-1210 T790M/C797S/L858R): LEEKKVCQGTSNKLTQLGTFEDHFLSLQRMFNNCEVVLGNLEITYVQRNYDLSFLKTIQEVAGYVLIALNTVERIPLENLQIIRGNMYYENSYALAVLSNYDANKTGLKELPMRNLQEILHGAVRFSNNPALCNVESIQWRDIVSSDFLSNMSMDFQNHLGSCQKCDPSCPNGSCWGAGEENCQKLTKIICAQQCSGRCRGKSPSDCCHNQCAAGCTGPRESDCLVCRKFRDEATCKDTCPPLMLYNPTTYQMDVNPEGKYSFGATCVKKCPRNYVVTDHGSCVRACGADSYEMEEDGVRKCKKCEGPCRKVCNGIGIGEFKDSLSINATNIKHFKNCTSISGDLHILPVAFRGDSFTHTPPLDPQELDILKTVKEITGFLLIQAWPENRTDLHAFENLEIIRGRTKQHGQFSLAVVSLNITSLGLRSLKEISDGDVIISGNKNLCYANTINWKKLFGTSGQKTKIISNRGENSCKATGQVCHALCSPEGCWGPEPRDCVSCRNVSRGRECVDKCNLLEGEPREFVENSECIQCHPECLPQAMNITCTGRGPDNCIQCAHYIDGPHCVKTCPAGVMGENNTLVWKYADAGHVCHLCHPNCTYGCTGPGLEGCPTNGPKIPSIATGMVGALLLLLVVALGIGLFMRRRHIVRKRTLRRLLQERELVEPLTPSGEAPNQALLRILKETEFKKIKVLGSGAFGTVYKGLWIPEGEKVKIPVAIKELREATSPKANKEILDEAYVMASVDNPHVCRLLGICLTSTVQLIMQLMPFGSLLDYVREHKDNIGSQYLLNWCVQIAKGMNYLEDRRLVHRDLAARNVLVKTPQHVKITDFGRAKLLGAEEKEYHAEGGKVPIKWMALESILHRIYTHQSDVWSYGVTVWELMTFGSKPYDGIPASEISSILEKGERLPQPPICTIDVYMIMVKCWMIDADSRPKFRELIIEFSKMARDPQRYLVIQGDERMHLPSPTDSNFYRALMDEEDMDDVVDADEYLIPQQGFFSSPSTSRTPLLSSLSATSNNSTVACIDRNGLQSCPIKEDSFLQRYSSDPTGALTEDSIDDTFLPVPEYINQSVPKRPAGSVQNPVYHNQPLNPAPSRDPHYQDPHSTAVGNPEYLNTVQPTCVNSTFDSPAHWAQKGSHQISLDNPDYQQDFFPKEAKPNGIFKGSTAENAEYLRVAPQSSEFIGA

Regarding `COc1cc(N(C)CCN(C)C)c2cc1Nc1ncc(Cl)c(n1)Nc1ccc(cc1N(C)S(C)(=O)=O)OCCCCC2` [Compound A5, N-(3^5-chloro-1^4-((2-(dimethylamino)ethyl)(methyl)amino)-1^6-methoxy-6-oxa-2,4-diaza-3(2,4)-pyrimidina-1(1,3),5(1,4)-dibenzenacycloundecaphane-5^2-yl)-N-methylmethanesulfonamide], the IC50 on EGFR_L858R/T790M/C797S was 27.9 nM.
`COc1cc(N2CCN(C)CC2)c2cc1Nc1ncc(Cl)c(n1)Nc1ccc(cc1S(C)(=O)=O)OCCCC2` [Compound A6, 3^5-chloro-1^6-methoxy-1^4-(4-methylpiperazin-1-yl)-5^2-(methylsulfonyl)-6-oxa-2,4-diaza-3(2,4)-pyrimidina-1(1,3),5(1,4)-dibenzenacyclodecaphane] gave an IC50 on EGFR_L858R/T790M/C797S of 10000 nM.
Take `COc1cc(N2CCN(C)CC2)c2cc1Nc1ncc(C(F)(F)F)c(n1)Nc1ccc(cc1N(C)S(C)(=O)=O)OCCCCC2` [Compound A13, N-(1^6-methoxy-1^4-(4-methylpiperazin-1-yl)-3^5-(trifluoromethyl)-6-oxa-2,4-diaza-3(2,4)-pyrimidina-1(1,3),5(1,4)-dibenzenacycloundecaphane-5^2-yl)-N-methylmethanesulfonamide]: the values for the IC50 in the assay with Ba/F3_WT cell and on EGFR_L858R/T790M/C797S were 3770 nM and 2 nM, respectively. For the same molecule, the GI50 in assay [1] was found to be 108 nM.
On EGFR_L858R/T790M/C797S, `COc1cc(N(C)CCN(C)C)c2cc1Nc1ncc(Cl)c(n1)Nc1ccc(cc1N(C)S(C)(=O)=O)OCCC2` [Compound A7, N-(3^5-chloro-1^4-((2-(dimethylamino)ethyl)(methyl)amino)-1^6-methoxy-6-oxa-2,4-diaza-3(2,4)-pyrimidina-1(1,3),5(1,4)-dibenzenacyclononaphane-5^2-yl)-N-methylmethanesulfonamide] registered an IC50 of 3760 nM.
`CCOc1cc(N2CCN(C)CC2)c2cc1Nc1ncc(Cl)c(n1)Nc1ccc(cc1N(C)S(C)(=O)=O)OCCCCC2` [Compound A21, N-(3^5-chloro-1^6-ethoxy-1^4-(4-methylpiperazin-1-yl)-6-oxa-2,4-diaza-3(2,4)-pyrimidina-1(1,3),5(1,4)-dibenzenacycloundecaphane-5^2-yl)-N-methylmethanesulfonamide] came in with an IC50 at EGFR_L858R/T790M/C797S of 40.5 nM.
The same measure, in the same setting: then `COc1cc(N2CCC(N3CCN(C)CC3)CC2)c2cc1Nc1ncc(Br)c(n1)Nc1ccc(cc1N(C)S(C)(=O)=O)CCCNC(=O)CC2` [Compound A42], with 3.8 nM; and `COc1cc(N2CCC(N3CCN(C)CC3)CC2)c2cc1Nc1ncc(Br)c(n1)Nc1ccc(cc1N(C)S(C)(=O)=O)CCC(=O)NCCC2` [Compound A41, N-(3^5-bromo-1^6-methoxy-1^4-(4-(4-methylpiperazin-1-yl)piperidin-1-yl)-8-oxo-2,4,9-triaza-3(2,4)-pyrimidina-1(1,3),5(1,4)-dibenzenacyclododecaphane-5^2-yl)-N-methylmethanesulfonamide], with 0.4 nM; and `COc1cc(N2CCC(N(C)CCN(C)C)CC2)c2cc1Nc1ncc(Br)c(n1)Nc1ccc(cc1N(C)S(C)(=O)=O)OCCCCC2` [Compound A36, N-(3^5-bromo-1^4-(4-((2-(dimethylamino)ethyl)(methyl)amino)piperidin-1-yl)-1^6-methoxy-6-oxa-2,4-diaza-3(2,4)-pyrimidina-1(1,3),5(1,4)-dibenzenacycloundecaphane-5^2-yl)-N-methylmethanesulfonamide], with 2.9 nM.
For `COc1cc(N2CCN(C)CC2)c2cc1Nc1ncc(F)c(n1)Nc1ccc(cc1N(C)S(C)(=O)=O)OCCCCC2` [Compound A11, N-(3^5-fluoro-1^6-methoxy-1^4-(4-methylpiperazin-1-yl)-6-oxa-2,4-diaza-3(2,4)-pyrimidina-1(1,3),5(1,4)-dibenzenacycloundecaphane-5^2-yl)-N-methylmethanesulfonamide], the IC50 on EGFR_L858R/T790M/C797S was determined as 17 nM.
Same read-out and setting: the figure for `COc1cc(N2CCC(N3CCN(C)CC3)CC2)c2cc1Nc1ncc(Cl)c(n1)Nc1ccc(cc1N(C)S(C)(=O)=O)OCCCCC(=O)N2` [Compound A40, N-(3^5-chloro-1^6-methoxy-1^4-(4-(4-methylpiperazin-1-yl)piperidin-1-yl)-11-oxo-6-oxa-2,4,12-triaza-3(2,4)-pyrimidina-1(1,3),5(1,4)-dibenzenacyclododecaphane-5^2-yl)-N-methylmethanesulfonamide] is 4.3 nM.
For `COc1cc(N2CCN(C)CC2)c2cc1Nc1ncc(Cl)c(n1)Nc1ccc(cc1C(=O)N(C)C)OCCCCCC2` [Compound A25, 3^5-chloro-1^6-methoxy-N,N-dimethyl-1^4-(4-methylpiperazin-1-yl)-6-oxa-2,4-diaza-3(2,4)-pyrimidina-1(1,3),5(1,4)-dibenzenacyclododecaphane-5^2-carboxamide], on EGFR_L858R/T790M/C797S, the IC50 amounted to 2510 nM.
Same read-out and setting: then `COc1cc(N2CCN(C)CC2)c2cc1Nc1ncc(Cl)c(n1)Nc1ccc(cc1N(C)S(=O)(=O)C(C)C)OCCCCC2` [Compound A17, N-(3^5-chloro-1^6-methoxy-1^4-(4-methylpiperazin-1-yl)-6-oxa-2,4-diaza-3(2,4)-pyrimidina-1(1,3),5(1,4)-dibenzenacycloundecaphane-5^2-yl)-N-methylpropane-2-sulfonamide], with 82.2 nM; and `COc1cc(N2CCC3(CC2)CN(C)C3)c2cc1Nc1ncc(Br)c(n1)Nc1ccc(cc1N(C)S(C)(=O)=O)OCCCCC2` [Compound A38, N-(3^5-bromo-1^6-methoxy-1^4-(2-methyl-2,7-diazaspiro[3.5]nonan-7-yl)-6-oxa-2,4-diaza-3(2,4)-pyrimidina-1(1,3),5(1,4)-dibenzenacycloundecaphane-5^2-yl)-N-methylmethanesulfonamide], with 0.3 nM; and `COc1cc(N2CCN(C)CC2)c2cc1Nc1ncc(Br)c(n1)Nc1ccc(cc1N(C)S(C)(=O)=O)OCCCCC2` [Compound A12, N-(3^5-bromo-1^6-methoxy-1^4-(4-methylpiperazin-1-yl)-6-oxa-2,4-diaza-3(2,4)-pyrimidina-1(1,3),5(1,4)-dibenzenacycloundecaphane-5^2-yl)-N-methylmethanesulfonamide], with 0.6 nM.
The same measure, in the same setting: then `COc1cc(N2CCN(C)CC2)c2cc1Nc1ncc(Cl)c(n1)Nc1ccc(cc1NS(C)(=O)=O)OCCCCC2` [Compound A16, N-(3^5-chloro-1^6-methoxy-1^4-(4-methylpiperazin-1-yl)-6-oxa-2,4-diaza-3(2,4)-pyrimidina-1(1,3),5(1,4)-dibenzenacycloundecaphane-5^2-yl)methanesulfonamide], with 20.3 nM.
The same measure, in the same setting: then `CC(C)Oc1cc(N2CCN(C)CC2)c2cc1Nc1ncc(Cl)c(n1)Nc1ccc(cc1N(C)S(C)(=O)=O)OCCCCC2` [Compound A22, N-(3^5-chloro-1^6-isopropoxy-1^4-(4-methylpiperazin-1-yl)-6-oxa-2,4-diaza-3(2,4)-pyrimidina-1(1,3),5(1,4)-dibenzenacycloundecaphane-5^2-yl)-N-methylmethanesulfonamide], with 503 nM; and `COc1cc(N2CCC(N3CCN(C)CC3)CC2)c2cc1Nc1ncc(Cl)c(n1)Nc1ccc(cc1S(C)(=O)=O)OCCCCCC2` [Compound A19, 3^5-chloro-1^6-methoxy-1^4-(4-(4-methylpiperazin-1-yl)piperidin-1-yl)-5^2-(methylsulfonyl)-6-oxa-2,4-diaza-3(2,4)-pyrimidina-1(1,3),5(1,4)-dibenzenacyclododecaphane], with 180 nM.
Take `COc1cc(N2CCN(C)CC2)c2cc1Nc1ncc(Cl)c(n1)Nc1ccc(cc1N(C)S(C)(=O)=O)OCCC2` [Compound A2, N-(3^5-chloro-1^6-methoxy-1^4-(4-methylpiperazin-1-yl)-6-oxa-2,4-diaza-3(2,4)-pyrimidina-1(1,3),5(1,4)-dibenzenacyclononaphane-5^2-yl)-N-methylmethanesulfonamide]: the concentration for half-maximal inhibition (IC50) on EGFR_L858R/T790M/C797S came out at 643 nM.
Still for that read-out and setting: the figure for `COc1cc(N2CCC(N3CCC(N(C)C)CC3)CC2)c2cc1Nc1ncc(Br)c(n1)Nc1ccc(cc1N(C)S(C)(=O)=O)OCCCCC2` [Compound A37, N-(3^5-bromo-1^4-(4-(dimethylamino)-[1,4′-bipiperidin]-1′-yl)-1^6-methoxy-6-oxa-2,4-diaza-3(2,4)-pyrimidina-1(1,3),5(1,4)-dibenzenacycloundecaphane-5^2-yl)-N-methylmethanesulfonamide] is 0.6 nM.
